Measurements reported in US10342766B2, “6-shogaol derivatives and activities thereof” (North Carolina Agricultural and Technical State University, priority 2017, dated 2019).
Entries after “also recorded” stand apart in the source; their conditions may differ.

Key:
heme oxygenase-1 (HO-1) = assay: Western blotting of HO-1 expression in CCD 841 CoN cells; format: cell-based, human
Protocol: Human normal colonic epithelial cells (CCD 841 CoN) were grown in Eagle's Minimum Essential Medium with 10% fetal bovine serum and 1% penicillin/streptomycin, and maintained at 37° C. in a 100% humidified atmosphere of 5% CO2 and 95% air. Fresh growth medium was added to the cells every two days until confluent. Cells were planted in 145×20 mm flat-bottomed tissue culture dishes and growth to 70-80% confluence and then treated with compound 27 for various doses and time points. At the end of incubation period, cell lysates were prepared in ice-cold Cell Lysis Buffer (Cell Signaling, Danvers, Mass., United States of America) with 1% protease inhibitor cocktail and 1% phenylmethylsulfonyl fluoride (Sigma, St. Louis, Mo., United States of America). Protein concentrations were measured using BCA Protein Assay Kit (Thermo Scientific, Rockford, Ill., United States of America). […] The bound complexes were detected with SuperSignal Chemiluminescent Substract (Thermo Scientific, Rockford, Ill., United States of America). The immunoblot bands were quantified by densitometry analysis, and the ratio to β-actin was calculated and presented.

[1] = Biotransformation in zebrafish embryos (cysteine conjugates, LC/MS); format: in vivo; conditions: 5 μM in incubation medium, 8 hpf to 24 hpf
Protocol: Fifty zebrafish embryos at the 8 hour-post-fertilization (hpf) stage were incubated at 28.5° C. in 0.3× Danieau's solution (19.3 mM NaCl, 0.23 mM KCl, 0.13 mM MgSO4, 0.2 mM Ca(NO3)2, 1.7 mM HEPES, pH 7.0) with or without 5 μM 18 and 25-27, respectively. At 24 hpf, embryos were dechorionated manually and the chorions were carefully removed one by one from the culture medium. The zebrafish embryos were harvested and kept at −80° C. till analyzed by LC/MS.
200 μL Sodium acetate buffer solution (pH 5.0) was added to 50 zebrafish embryos. Samples were homogenized for 90 s by an Omni Bead Ruptor Homogenizer (Kennesaw, Ga., United States of America). 10 μL 10% ascorbic acid and 300 μL sodium acetate buffer were added to the homogenates. The mixture was incubated in the presence of β-glucuronidase (250 U) and sulfatase (3 U) at 37° C. for 45 min, and then 600 μL MeOH with 1% acetic acid was added. The resulting mixture was vortexed for 30 s and then centrifuged at 17000 g for 10 min. The supernatant was removed and evaporated under a gentle stream of nitrogen. The residue was reconstituted in 150 μL 90% MeOH with 0.2% acetic acid (AA), and 10 μL was analyzed directly by LC/MS.
LC/MS analysis was carried out with a Thermo-Finnigan Spectra System, which consisted of an Accela high speed MS pump, an Accela refrigerated autosampler, and an LCQ Fleet ion trap mass detector (Thermo Electron, San Jose, Calif., United States of America) incorporated with an electrospray ionization (ESI) interface. A Gemini-NX C18 column (150 mm×4.6 mm i.d., 5 μm; Phenomenex, Torrance, Calif., United States of America) was used for separation at a flow rate of 0.3 mL/min. The column was eluted with 100% A (5% aqueous methanol with 0.2% formic acid) for 1 min, followed by linear increases in B (95% aqueous methanol with 0.2% formic acid) to 55% from 1 to 4 min, to 85% from 4 to 25 min, then to 100% B from 25 to 30 min, and then with 100% B from 30 to 35 min. The column was then re-equilibrated with 100% A for 5 min. The LC eluent was introduced into the ESI interface. The positive ion polarity mode was set for the ESI source with the voltage on the ESI interface maintained at approximately 4.6 kV. Nitrogen gas was used as the sheath gas and auxiliary gas. Optimized source parameters, including capillary temperature (260° C.), sheath gas flow rate (31 arbitrary units), auxiliary gas flow rate (16 units), tube lens (34 V), and capillary voltage 9 V, were tuned using authentic samples. The collision-induced dissociation (CID) was conducted with an isolation width 2 Da and normalized collision energy of 35 for MS^2. The mass range was measured from 100 to 800 m/z. Data acquisition was performed with Xcalibur version 2.0 (Thermo Electron, San Jose, Calif., United States of America).

[2] = tested on: human colon cancer cells HT-29; assay: MTT growth inhibition, HT-29; format: cell-based; conditions: 24 hours
Protocol: (§1) Cell viability was determined by an MTT colorimetric assay. Briefly, human colon cancer cells HCT-116 or HT-29, were plated in 96-well microtiter plates with 3000 cells/well and allowed to attach for 24 hours at 37° C. and 5% CO2. The test compounds (in DMSO) were added to cell culture medium to desired final concentrations (final DMSO concentrations for control and treatments were 0.1%). After the cells were cultured for 24 hours, the medium was aspirated and cells were treated with 200 μL fresh medium containing 2.41 mmol/L MTT. After incubation for 3 hours at 37° C., the medium containing MTT was aspirated, 100 μL of DMSO was added to solubilize the formazan precipitate, and the plates were shaken gently for an hour at room temperature. Absorbance values were derived from the plate reading at 550 nm on a Biotek (Winooski, Vt., United States of America) microtiter plate reader. The reading reflected the number of viable cells and was expressed as a percentage of viable cells in the control. CCD-18Co cells were grown in EMEM. Both HCT-116 and HT-29 cells were cultured in McCoy's 5A medium. All of the above media were supplemented with 10% fetal bovine serum, 1% penicillin/streptomycin, and 1% glutamine, and the cells were kept in a 37° C. incubator with 95% humidity and 5% CO2.

[3] = tested on: human colon cancer cells HCT-116; assay: MTT growth inhibition, HCT-116; format: cell-based; conditions: 24 hours
Protocol: as §1

In the case of `CCCCCCCC(=O)/C=C/c1ccc(O)c(O)c1` [Compound 27], the “HO-1 expression, time dependence” value (heme oxygenase-1 (HO-1); 10 μM for 3, 6, 12 and 24 h, vs control (0 h)) is reported as “significantly increased HO-1 expression; also recorded: increased HO-1 expression in a time-dependent manner”, the “HO-1 protein expression, dose dependence” value (heme oxygenase-1 (HO-1); 5, 10 and 20 μM for 24 h, vs untreated control) is reported as “significantly increased HO-1 protein expression; also recorded: increased HO-1 expression in a dose-dependent manner” and the “Cysteine conjugates found in zebrafish embryos” value [1] is reported as “four cysteine conjugates 36, 36a, 37, and 37b were found”. For the same compound, the IC50 [2] was 78.4 µM and the IC50 [3] was 34.1 µM.
